According to patent US20220153875A1, “ANTIGEN-BINDING MOLECULE CONTAINING ANTIGEN-BINDING DOMAIN OF WHICH BINDING ACTIVITY TO ANTIGEN IS CHANGED DEPENDING ON MTA, AND LIBRARY FOR OBTAINING SAID ANTIGEN-BINDING DOMAIN” (Chugai Seiyaku Kabushiki Kaisha, priority 2019, published 2022):

How the values were obtained:
[1] = test system: SK-MES-1 cells; assay: Uptake of extracellular MTA by MTAP-non-deficient cells SK-MES-1 (MTA in culture solution, LC-MS); type: in vitro ADME; settings: SK-MES-1, MTA added at 100 nM, 0, 4, 24, 48, 72 hours
Protocol: (§1) Since the MTA concentration in the culture solution of MTAP-deficient cells increases over time, it is inferred that there is an intracellular to extracellular MTA transfer pathway. However, in MTAP-non-deficient cells. MTA concentration in the culture solution was very low (FIG. 2), despite the expected presence of ˜1 uM MTA within the cells (FIG. 1). […] Thereafter, an MTA solution was added to the culture solution so as to make the MTA concentration 100 nM, and the cells were cultured for a predetermined time (MTA: Sigma, Catalog No. D5011-100MG).

[2] = test system: HT-1376 cells; assay: Uptake of extracellular MTA by MTAP-non-deficient cells HT-1376 (MTA in culture solution, LC-MS); type: in vitro ADME; settings: HT-1376, MTA added at 100 nM, 0, 4, 24, 48, 72 hours
Protocol: as §1

CSC[C@H]1O[C@@H](n2cnc3c(N)ncnc32)[C@H](O)[C@@H]1O (stereo in doubt) [MTA, methylthioadenosine]
MTA concentration in the culture solution [1]: decreased over time
MTA concentration in the culture solution [2]: decreased over time
